ChEMBL document CHEMBL5104178, “Nitroimidazopyrazinones with Oral Activity against Tuberculosis and Chagas Disease in Mouse Models of Infection” (J Med Chem, 2022)
Values after ≈ are worked out from the molar mass of the structure shown.

Key:
[1] = Solubility of compound in water by LC-UV analysis; type: physicochemical
[2] = system: Mycobacterium tuberculosis; assay: Antimycobacterial activity against Mycobacterium tuberculosis H37Rv ATCC 27294 assessed as bacterial growth inhibition incubated for 5 days under normoxic condition by resazurin microtiter assay; type: functional; conditions: H37Rv ATCC 27294, 120 h, time 5 day
[3] = system: Mycobacterium tuberculosis; assay: Antimycobacterial activity against Mycobacterium tuberculosis H37Ra ATCC 25177 assessed as bacterial growth inhibition incubated for 6 days under normoxic condition by resazurin microtiter assay; type: functional; conditions: H37Ra ATCC 25177, 144 h, time 6 day
Mycobacterium avium = assay: Antimycobacterial activity against Mycobacterium avium ATCC 25291 assessed as bacterial growth inhibition incubated for 6 days under normoxic condition by resazurin microtiter assay; type: functional; conditions: ATCC 25291, 144 h, time 6 day
[4] = system: Mycolicibacterium smegmatis; assay: Antimycobacterial activity against Mycobacterium smegmatis mc2155 ATCC 700084 assessed as bacterial growth inhibition incubated for 24 hrs under normoxic condition by resazurin microtiter assay; type: functional
[5] = system: Mycobacterium tuberculosis; assay: Antimycobacterial activity against Mycobacterium tuberculosis H37Rv ATCC 27294 assessed as bacterial growth inhibition incubated for 5 days under hypoxic condition by resazurin microtiter assay; type: functional; conditions: H37Rv ATCC 27294, 120 h, time 5 day
[6] = system: Mycobacterium tuberculosis; assay: Substrate activity at Mycobacterium tuberculosis Ddn expressed in Escherichia coli BL21 (DE3) assessed as oxidation of F420H2 by measuring Kcat by spectrophotometric analysis
[7] = system: Mycobacterium tuberculosis; assay: Substrate activity at Mycobacterium tuberculosis Ddn expressed in Escherichia coli BL21 (DE3) assessed as oxidation of F420H2 by measuring Km by spectrophotometric analysis
[8] = system: Mycobacterium tuberculosis; assay: Substrate activity at Mycobacterium tuberculosis Ddn expressed in Escherichia coli BL21 (DE3) assessed as oxidation of F420H2 by measuring Kcat/Km by spectrophotometric analysis
[9] = Cmax in CD-1 mouse at 20 mg/kg, po administered as DMSO/PEG400/Cremophor RH40/water formulation measured upto 24 hrs by LC-MS/MS analysis; type: ADME, organism-based; set-up: dose 20 mg/kg, time < 24 hrs, route po; conditions: in vivo
[10] = AUC(0 to 8 hrs) in CD-1 mouse at 20 mg/kg, po administered as DMSO/PEG400/Cremophor RH40/water formulation measured upto 24 hrs by LC-MS/MS analysis; type: ADME, organism-based; set-up: time < 24 hrs, dose 20 mg/kg, route po; conditions: in vivo
[11] = Tmax in CD-1 mouse at 20 mg/kg, po administered as DMSO/PEG400/Cremophor RH40/water formulation measured upto 24 hrs by LC-MS/MS analysis; type: ADME, organism-based; conditions: in vivo
[12] = Half life in CD-1 mouse at 20 mg/kg, po administered as DMSO/PEG400/Cremophor RH40/water formulation measured upto 24 hrs by LC-MS/MS analysis; type: ADME, organism-based; conditions: in vivo
[13] = Oral bioavailability in CD-1 mouse at 20 mg/kg administered as DMSO/PEG400/Cremophor RH40/water formulation measured upto 24 hrs by LC-MS/MS analysis; type: ADME, organism-based; conditions: in vivo
[14] = Volume of distribution at steady state in CD-1 mouse at 5 mg/kg, iv administered as DMSO/PEG400/Cremophor RH40/water formulation measured upto 24 hrs by LC-MS/MS analysis; type: ADME, organism-based; conditions: in vivo, read-out: Vdss
[15] = Clearance in CD-1 mouse at 5 mg/kg, iv administered as DMSO/PEG400/Cremophor RH40/water formulation measured upto 24 hrs by LC-MS/MS analysis; type: ADME, organism-based; conditions: in vivo
[16] = Half life in CD-1 mouse at 5 mg/kg, iv administered as DMSO/PEG400/Cremophor RH40/water formulation measured upto 24 hrs by LC-MS/MS analysis; type: ADME, organism-based; conditions: in vivo
[17] = Plasma protein binding in human; type: ADME, cell-free; conditions: read-out: PPB (converted)
[18] = Plasma protein binding in mouse; type: ADME, cell-free; conditions: read-out: PPB (converted)
[19] = Metabolic stability in human microsomes assessed as compound remaining measured after 2 hrs; type: ADME, Microsome; conditions: read-out: Stability
[20] = Metabolic stability in mouse microsomes assessed as compound remaining measured after 2 hrs; type: ADME, Microsome; conditions: read-out: Stability
[21] = Stability in human plasma assessed as compound remaining measured after 2 hrs; type: ADME, cell-free; conditions: read-out: Stability
[22] = Cmax in CD-1 mouse at 20 mg/kg, po administered as DMSO/PEG400 formulation measured upto 24 hrs by LC-MS/MS analysis; type: ADME, organism-based; set-up: dose 20 mg/kg, time < 24 hrs, route po; conditions: in vivo
[23] = AUC(0 to 8 hrs) in CD-1 mouse at 20 mg/kg, po administered as DMSO/PEG400 formulation measured upto 24 hrs by LC-MS/MS analysis; type: ADME, organism-based; set-up: dose 20 mg/kg, time < 24 hrs, route po; conditions: in vivo
[24] = Tmax in CD-1 mouse at 20 mg/kg, po administered as DMSO/PEG400 formulation measured upto 24 hrs by LC-MS/MS analysis; type: ADME, organism-based; conditions: in vivo
[25] = Oral bioavailability in CD-1 mouse at 20 mg/kg administered as DMSO/PEG400 formulation measured upto 24 hrs by LC-MS/MS analysis; type: ADME, organism-based; conditions: in vivo
[26] = Volume of distribution at steady state in CD-1 mouse at 5 mg/kg, iv administered as DMSO/PEG400 formulation measured upto 24 hrs by LC-MS/MS analysis; type: ADME, organism-based; conditions: in vivo, read-out: Vdss
[27] = Clearance in CD-1 mouse at 5 mg/kg, iv administered as DMSO/PEG400 formulation measured upto 24 hrs by LC-MS/MS analysis; type: ADME, organism-based; conditions: in vivo
[28] = Half life in CD-1 mouse at 5 mg/kg, iv administered as DMSO/PEG400 formulation measured upto 24 hrs by LC-MS/MS analysis; type: ADME, organism-based; conditions: in vivo
[29] = system: Mycobacterium tuberculosis; assay: Antimycobacterial activity against Mycobacterium tuberculosis H37Rv ATCC 27294 assessed as bacterial growth inhibition at 0.125 to 8 ug/ml incubated for 5 days under hypoxic condition by resazurin microtiter assay relative to control; type: functional; conditions: dose 0.125-8 µg/ml; time 5 day; at 0.125 to 8 µg/mL

Question: For `O=c1[nH]c(-c2ccccc2)cn2cc([N+](=O)[O-])nc12`, which solubility ([1]; buffer) is on record?
Answer: 27 µM (≈ 6.92 µg/mL)

Question: And the MIC [2]?
Answer: > 32 µg/mL

Question: And the MIC [3]?
Answer: > 32 µg/mL

Question: And the MIC (Mycobacterium avium)?
Answer: > 32 µg/mL

Question: What about the MIC [4] of the same molecule?
Answer: > 32 µg/mL

Question: What about the MIC [5] of the same molecule?
Answer: > 32 µg/mL

Question: And the kcat [6]?
Answer: 1.3 10^-3/s

Question: And the Km [7]?
Answer: 164 µM

Question: And the kcat/Km [8]?
Answer: 8.1 M⁻¹ s⁻¹

Question: And the Cmax [9]?
Answer: 13000 ng/mL

Question: And the AUC(0-t) at 24 h [10]?
Answer: 88300 ng·h/mL

Question: And the Tmax [11]?
Answer: 2 h

Question: What about the half-life [12] of the same molecule?
Answer: 3.2 h

Question: What about the bioavailability [13] of the same molecule?
Answer: 87%

Question: And the Vd [14]?
Answer: 0.34 L/kg

Question: What about the clearance [15] of the same molecule?
Answer: 3.38 mL/min/kg

Question: What about the half-life [16] of the same molecule?
Answer: 1.2 h

Question: What does the source list for `O=c1c2nc([N+](=O)[O-])cn2ccn1Cc1cccc(OC(F)(F)F)c1`?
Answer: solubility ([1]; water, read-out: solubility): 5.4 µM (≈ 1.91 µg/mL); MIC (Mycobacterium avium): > 32 µg/mL; MIC [4]: > 32 µg/mL; kcat [6]: 3.1 10^-3/s; Km [7]: 45 µM; kcat/Km [8]: 70 M⁻¹ s⁻¹; fraction unbound [17]: < 0.01; fraction unbound [18]: < 0.01; remaining at 2 h [19]: > 99%; remaining at 2 h [20]: 97%; remaining at 2 h [21]: 99%; Cmax [22]: 2900 ng/mL; AUC(0-t) at 24 h [23]: 15600 ng·h/mL; Tmax [24]: 3 h; bioavailability [25]: 73%; Vd [26]: 1.1 L/kg; clearance [27]: 10.1 mL/min/kg; half-life [28]: 1.1 h

Question: With `O=c1c2nc([N+](=O)[O-])cn2ccn1Cc1cncc(-c2cccc(OC(F)(F)F)c2)c1` as the molecule, how does the kcat [6] read?
Answer: 1.4 10^-2/s

Question: And the Km [7]?
Answer: 4.3 µM

Question: What about the kcat/Km [8] of the same molecule?
Answer: 3190 M⁻¹ s⁻¹

Question: Which results are given for `O=c1c2nc([N+](=O)[O-])cn2ccn1Cc1ccc(N2CCCCC2)cc1`?
Answer: kcat [6]: 1.7 10^-3/s; Km [7]: 2.2 µM; kcat/Km [8]: 773 M⁻¹ s⁻¹

Question: For `Cc1cccc(Cn2ccn3cc([N+](=O)[O-])nc3c2=O)c1`, which MIC [2] is on record?
Answer: 0.063 µg/mL (≈ 0.222 µM)

Question: What about the MIC [3] of the same molecule?
Answer: ≤ 0.016 µg/mL

Question: What about the MIC (Mycobacterium avium) of the same molecule?
Answer: > 32 µg/mL

Question: What about the MIC [4] of the same molecule?
Answer: > 32 µg/mL

Question: What about the “inhibition (INH)” value [29] of the same molecule?
Answer: 70%

Question: With `NNC(=O)c1ccncc1` [ISONIAZID] as the molecule, how does the MIC [3] read?
Answer: 0.031 µg/mL (≈ 0.226 µM)

Question: What about the MIC (Mycobacterium avium) of the same molecule?
Answer: > 32 µg/mL

Question: And the MIC [4]?
Answer: > 32 µg/mL

Question: With `O=C(NCc1ccc(OC(F)(F)F)cc1)c1ncc([N+](=O)[O-])[nH]1` as the molecule, how does the kcat [6] read?
Answer: 2.1 10^-4/s

Question: What about the Km [7] of the same molecule?
Answer: 31 µM

Question: What about the kcat/Km [8] of the same molecule?
Answer: 6.9 M⁻¹ s⁻¹

Question: Which results are given for `Cc1c(C)n2cc([N+](=O)[O-])nc2c(=O)n1Cc1ccc(OC(F)(F)F)cc1`?
Answer: MIC (Mycobacterium avium): > 32 µg/mL; MIC [4]: > 32 µg/mL; kcat [6]: 6.9 10^-3/s; Km [7]: 28 µM; kcat/Km [8]: 244 M⁻¹ s⁻¹

Question: Which results are given for `Cc1cn2cc([N+](=O)[O-])nc2c(=O)n1Cc1ccc(OC(F)(F)F)cc1`?
Answer: MIC [2]: > 32 µg/mL; MIC [3]: 4 µg/mL (≈ 10.9 µM); MIC (Mycobacterium avium): > 32 µg/mL; MIC [4]: > 32 µg/mL

Question: What does the source list for `Cc1nc(OCc2ccc(OC(F)(F)F)cc2)c2nc([N+](=O)[O-])cn2c1C`?
Answer: MIC [2]: > 32 µg/mL; MIC [3]: > 32 µg/mL; MIC (Mycobacterium avium): > 32 µg/mL; MIC [4]: > 32 µg/mL; MIC [5]: > 32 µg/mL; kcat [6]: 7 10^-4/s; Km [7]: 30 µM; kcat/Km [8]: 24 M⁻¹ s⁻¹
